Results as given in the Biogen ADME set (Fang et al. 2023).
In brackets after ≈: the same amount, converted by molar mass.

Settings: for aqueous solubility: pH 6.8

| Structure (SMILES) | MDR1-MDCK efflux ratio | intrinsic clearance, human liver microsomes [L/h/kg] | intrinsic clearance, rat liver microsomes [L/h/kg] | aqueous solubility [mg/mL] | fraction unbound, human plasma | fraction unbound, rat plasma |
| --- | --- | --- | --- | --- | --- | --- |
| C=C1C[C@@H]2[C@H](CC[C@]3(C)C(=O)CC[C@@H]23)[C@@]2(C)C=CC(=O)C=C12 | 0.494 | ≤ 0.284 | ≤ 0.64 |  |  |  |
| Nc1nc(N)c2c(OCC3CCN(Cc4c(Cl)cccc4Cl)CC3)cccc2n1 | 0.816 |  |  | 0.0004 (≈ 0.925 µM) |  |  |
| CC(C)(C)Cc1nnc(-c2cnc3onc(C4CCCC4)c3c2)o1 |  |  |  | 0.00399 (≈ 12.2 µM) |  |  |
| O=C(c1cccc(CNc2ccc3nccnc3n2)c1)N1CCCCC1 | 37.4 | 0.832 | 8.73 | 0.0563 (≈ 162 µM) |  |  |
| Cc1ncc2c(n1)CN(CCCc1nc3ccccc3o1)CC2 | 0.774 | 5.07 | 18.5 | 0.0466 (≈ 151 µM) |  |  |
| N#Cc1c(N2CCCC2)oc2nc3ccccc3nc12 |  |  |  | 0.0003 (≈ 1.14 µM) |  |  |
| Cc1cc(C)n2nc(C)c(C(=O)NCC3CC3)c2n1 | 0.725 | 2.8 | 6.34 |  |  |  |
| COc1cc(F)ccc1-c1ncnc(Nc2cccc(C[S@@](C)(=N)=O)c2)n1 | 150 | ≤ 0.284 | ≤ 0.64 | 0.0537 (≈ 139 µM) | 0.393 | 0.375 |
| Cn1ccnc1-c1noc(NCc2ccccc2)n1 | 1.21 | 0.303 | 11.6 |  |  |  |
| COc1cccc(-n2nc(C(=O)O)cc2-c2ccc(C3CCCCC3)c(Cl)c2)c1 | 1.56 | 0.467 | 1.95 | 0.0338 (≈ 82.1 µM) |  |  |
| O=c1c2cc(OCc3ccc(Cl)cc3)ccc2nc2n1CCCCC2 | 0.969 |  |  | 0.00038 (≈ 1.07 µM) |  |  |
| CC1=C(C(=O)Nc2cc3cn[nH]c3cc2F)C(c2ccc(C(F)(F)F)cc2)CC(=O)N1 (stereo not drawn) | 56.3 | 3.06 | 7.19 |  |  |  |
| Cc1cncc(C2CCN(Cc3cnccn3)CC2)n1 | 0.65 | ≤ 0.284 | 3.64 | 0.0678 (≈ 252 µM) |  |  |
| CC(=O)Nc1cccc(OC(=O)N2CCOCC2)c1 | 2.62 | 0.452 | ≤ 0.64 | 0.0567 (≈ 215 µM) |  |  |
| CCc1ccc(CC)c(C(=O)CSc2nncs2)c1 | 0.473 | 13.2 | 92.9 |  |  |  |
| COc1ccc(CN2CCC(c3cc[nH]n3)CC2)cn1 |  | ≤ 0.284 | 6.16 |  |  |  |
| Cc1ccc(-c2cnc(N)cn2)c2cccnc12 | 0.671 | 1.39 | 4.52 | 0.0318 (≈ 135 µM) |  |  |
| Cn1cnnc1-c1cccc(NS(=O)(=O)c2ccc3c(c2)OCCCO3)c1 | 79.6 | 3.39 | 10.8 |  |  |  |
| CC(C)(C)c1cc(NC(=O)Nc2ccc(-c3cn4c(n3)sc3cc(OCCN5CCOCC5)ccc34)cc2)no1 |  |  |  | 0.0003 (≈ 0.535 µM) |  |  |
| CN(C)CCOc1cc(-c2cn[nH]c2)ccc1NC(=O)C1COc2ccccc2O1 (stereo not drawn) | 32.1 | 1.19 | 41.5 |  |  |  |
| CCCn1c(=O)c2c(nc3n2CCN3c2ccc(C)cc2)n(C)c1=O |  |  |  | 0.00015 (≈ 0.442 µM) |  |  |
| CC(=O)N[C@H]1CCN(C(=O)N[C@H](C)C(c2ccccc2)c2ccccc2)C1 | 113 | 3.81 | 49.5 |  |  |  |
| O=C(Nc1ccc2c(c1)N(CC(F)F)C(=O)CS2)C1CC=CC1 | 0.742 | 3.16 | 23.4 |  |  |  |
| O=C(NCCc1ccc2c(c1)OCCO2)c1ccc2ccccc2n1 | 0.565 | 7.4 | 117 | 0.00967 (≈ 28.9 µM) |  |  |
| Cc1ccc(-n2nc(C(=O)N3CC(O)C3)c3c2CCCC3)cc1 | 5.67 | 3.2 | 10.9 | 0.0365 (≈ 117 µM) |  |  |
| Cc1nc2cc(C(=O)NC34CCCC3NCC4)ccc2c(=O)[nH]1 (stereo not drawn) | 0.754 | ≤ 0.284 |  |  | 0.735 |  |
| COc1ccc(OC)c(S(=O)(=O)Nc2cccc(CCc3ccccn3)c2)c1 | 4.21 | 34.9 | 189 | 0.0398 (≈ 99.8 µM) |  |  |
| CC(C)c1nnc(-c2ccc(-c3ccccc3)nc2)n1-c1cccc2nonc12 | 4.09 | 0.496 | 31.1 | 0.0534 (≈ 140 µM) |  |  |
| Clc1ccc(CSc2nc(-c3ccccc3)c[nH]2)cn1 | 0.621 | 13.8 | 173 |  |  |  |
| Cc1ncc(C(=O)Nc2ncnc3oc(C)c(C)c23)s1 | 0.422 | 1.58 | 9.58 | 0.0532 (≈ 185 µM) |  |  |
